ChEMBL document CHEMBL1201862, “PubChem BioAssay data set” (2004)
Active and inactive are the calls of the source.

Columns and labels:
[1] = Luminescence-based cell-based high throughput dose response assay to identify activators of the DAF-12 from the parasite S. stercoralis (ssDAF-12).; type: functional
[2] = biological target: T1, Oxysterols receptor LXR-beta (Homo sapiens, UniProt P55055); assay: LXR agonists, Gal4 luciferase reporter, dose response, counter-screen for ssDAF-12 agonist project, cell-based, luminescence, HEK293, S. stercoralis campaign (AID 720737); type: functional; settings: read-out: IC50 (the source's name)
T1 sequence (P55055 whole entry): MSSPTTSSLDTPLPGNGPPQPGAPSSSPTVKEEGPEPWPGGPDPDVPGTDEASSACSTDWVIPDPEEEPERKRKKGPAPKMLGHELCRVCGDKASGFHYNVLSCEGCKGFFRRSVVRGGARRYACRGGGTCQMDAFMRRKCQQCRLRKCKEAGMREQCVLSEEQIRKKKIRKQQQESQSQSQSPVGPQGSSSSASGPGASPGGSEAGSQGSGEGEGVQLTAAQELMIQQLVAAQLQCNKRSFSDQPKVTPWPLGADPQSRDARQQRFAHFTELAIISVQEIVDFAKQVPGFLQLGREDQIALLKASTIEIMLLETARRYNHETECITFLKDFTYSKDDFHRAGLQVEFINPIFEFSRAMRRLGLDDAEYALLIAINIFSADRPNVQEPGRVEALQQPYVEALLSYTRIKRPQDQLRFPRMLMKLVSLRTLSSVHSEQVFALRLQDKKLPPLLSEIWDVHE

[3] = A cytotoxicity screen of small molecule inhibitors of the PhoP region in Salmonella typhi identified in the primary screen. [Related pubchem assays: 1850, 1864, 1985 ]; type: functional
Estrogen receptor beta [4] = biological target: T2, Estrogen receptor beta (Homo sapiens, UniProt Q92731);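 further: recombinant ER-beta bound to coactivator SRC1 peptide in presence of estradiol agonist; inhibitors block coactivator peptide binding and lower the FRET signal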
Estrogen receptor beta [5] = biological target: T2, Estrogen receptor beta; assay: ERβ–SRC-3 coactivator interaction inhibitors, confirmation, orthogonal assay, biochemical, ELISA, streptavidin-HRP readout (AID 1060)
cells [6] = assay: cells
[7] = inhibitors of intracellular T. cruzi replication, confirmation, NIH3T3 host cells, beta-gal luminescence (AID 2044); type: functional, cell-based;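 further: intracellular parasites grown in NIH/3T3 mouse fibroblasts as host cells; luminescent beta-galactosidase reporter signal from transgenic T. cruzi replicating inside host cells; inhibitors lower the luminescence signal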
Nonstructural protein 1 = Nonstructural protein 1 (Influenza A virus, UniProt Q194T2); type: functional, Influenza A virus (A/California/07/2009(H1N1))
[8] = cytotoxicity toward NIH3T3 fibroblasts, dose response, counter-screen, cell-based, ATP luminescence, mouse fibroblasts (AID 2010); type: functional;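 further: cells exposed to compound for about 90 hours before reading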
[9] = biological target: NAD-dependent protein deacylase sirtuin-5, mitochondrial (Homo sapiens, UniProt Q9NXA8); assay: SIRT5 desuccinylase inhibitors, dose response, biochemical, fluorescence imaging, cherry-pick, set 5 (AID 720591);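 further: desuccinylation of succinyl peptide AMC substrate read as fluorescence after trypsin release; potency of inhibitors that lower fluorescence and may act on trypsin instead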
[10] = P. falciparum late gametocyte killing, dose response, luminescence (AID 1117278); type: functional, cell-based;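 further: gametocytes exposed to compound for 24 hours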
[11] = Jurkat T cell cytotoxicity, dose response, cytotoxicity control for P. falciparum gametocyte viability project, luminescence (AID 1117277); type: functional, cell-based;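 further: potency reflects loss of cellular ATP meaning fewer viable cells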
[12] = biological target: T3, Calpain-2 catalytic subunit (Sus scrofa, UniProt P43367); assay: pig calpain II inhibitor potency, dose response, biochemical, fluorogenic peptide substrate (AID 1420); type: functional
T3 sequence (P43367 whole entry): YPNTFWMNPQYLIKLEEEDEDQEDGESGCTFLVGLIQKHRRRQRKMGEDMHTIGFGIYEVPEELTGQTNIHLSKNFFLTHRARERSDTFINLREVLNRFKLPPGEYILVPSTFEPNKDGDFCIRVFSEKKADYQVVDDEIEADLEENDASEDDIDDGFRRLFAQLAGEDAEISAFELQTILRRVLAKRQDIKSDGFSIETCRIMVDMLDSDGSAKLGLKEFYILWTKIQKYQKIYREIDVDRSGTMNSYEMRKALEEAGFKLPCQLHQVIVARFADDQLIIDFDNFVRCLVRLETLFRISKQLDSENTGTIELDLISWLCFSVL

[13] = inhibitors of PGC1a acetylation in cells, dose response, cell-based, cherry-picked samples (AID 720514); type: functional;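 further: potency may reflect raised or lowered acetylation signal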
[14] = biological target: T4, Polyadenylate-binding protein 1 (Homo sapiens, UniProt P11940); assay: PABP1 MLLE–PAM2 interaction inhibitors, dose response, miRNA deadenylation inhibitor project, biochemical, fluorescence polarization, Cy5-PAM2 peptide, secondary (AID 602260); type: functional; settings: read-out: IC50_Mean
[15] = biological target: T4, Polyadenylate-binding protein 1; assay: PABP1 MLLE–PAM2 binding inhibitor potency, dose response, biochemical, fluorescence polarization, FITC-PAM2 peptide (AID 602259); type: functional; settings: read-out: IC50_Mean
cells [16] = assay: cells; remark: listed apart in the source
[17] = biological target: T1, Oxysterols receptor LXR-beta; type: functional, cell-based
Protein skinhead-1 = biological target: T5, Protein skinhead-1 (Caenorhabditis elegans, UniProt P34707); type: functional
T5 sequence (P34707 whole entry): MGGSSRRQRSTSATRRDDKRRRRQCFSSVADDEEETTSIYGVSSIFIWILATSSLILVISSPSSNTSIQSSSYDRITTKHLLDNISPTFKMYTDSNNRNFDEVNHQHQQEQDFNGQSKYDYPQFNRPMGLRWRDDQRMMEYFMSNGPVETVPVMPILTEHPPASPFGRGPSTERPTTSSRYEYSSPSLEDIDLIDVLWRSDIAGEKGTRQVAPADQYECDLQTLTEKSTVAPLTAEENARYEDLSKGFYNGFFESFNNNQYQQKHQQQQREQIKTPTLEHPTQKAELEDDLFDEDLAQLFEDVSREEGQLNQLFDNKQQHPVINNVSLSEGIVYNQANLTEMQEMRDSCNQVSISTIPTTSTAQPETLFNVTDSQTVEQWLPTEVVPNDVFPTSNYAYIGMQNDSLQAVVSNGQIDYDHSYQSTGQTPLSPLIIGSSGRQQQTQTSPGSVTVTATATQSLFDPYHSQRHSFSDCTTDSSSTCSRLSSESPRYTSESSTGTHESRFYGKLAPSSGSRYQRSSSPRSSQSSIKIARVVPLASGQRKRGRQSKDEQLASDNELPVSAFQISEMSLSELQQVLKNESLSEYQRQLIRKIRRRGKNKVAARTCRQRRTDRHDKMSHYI

[18] = biological target: T6, Microphthalmia-associated transcription factor (Homo sapiens, UniProt O75030); assay: TRPM1 promoter luciferase signal decrease, dose response, MITF inhibitor project, cell-based, SK-MEL-5, cherry-picked, set 3 (AID 493073); type: functional
T6 sequence (O75030 whole entry): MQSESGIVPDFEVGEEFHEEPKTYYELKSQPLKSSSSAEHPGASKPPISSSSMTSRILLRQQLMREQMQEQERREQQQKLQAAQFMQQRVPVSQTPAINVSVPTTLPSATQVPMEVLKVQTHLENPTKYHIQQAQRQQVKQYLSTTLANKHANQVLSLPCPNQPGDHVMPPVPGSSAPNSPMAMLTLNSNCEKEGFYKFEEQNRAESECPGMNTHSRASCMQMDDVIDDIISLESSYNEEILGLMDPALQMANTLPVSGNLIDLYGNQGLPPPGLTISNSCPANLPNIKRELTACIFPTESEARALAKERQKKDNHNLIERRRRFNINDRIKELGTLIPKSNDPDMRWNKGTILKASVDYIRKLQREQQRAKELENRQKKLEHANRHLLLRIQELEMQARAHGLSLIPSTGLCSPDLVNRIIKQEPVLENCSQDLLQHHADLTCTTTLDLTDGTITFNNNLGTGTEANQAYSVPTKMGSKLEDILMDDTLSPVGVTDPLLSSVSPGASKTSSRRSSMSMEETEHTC

T2 sequence (Q92731 whole entry): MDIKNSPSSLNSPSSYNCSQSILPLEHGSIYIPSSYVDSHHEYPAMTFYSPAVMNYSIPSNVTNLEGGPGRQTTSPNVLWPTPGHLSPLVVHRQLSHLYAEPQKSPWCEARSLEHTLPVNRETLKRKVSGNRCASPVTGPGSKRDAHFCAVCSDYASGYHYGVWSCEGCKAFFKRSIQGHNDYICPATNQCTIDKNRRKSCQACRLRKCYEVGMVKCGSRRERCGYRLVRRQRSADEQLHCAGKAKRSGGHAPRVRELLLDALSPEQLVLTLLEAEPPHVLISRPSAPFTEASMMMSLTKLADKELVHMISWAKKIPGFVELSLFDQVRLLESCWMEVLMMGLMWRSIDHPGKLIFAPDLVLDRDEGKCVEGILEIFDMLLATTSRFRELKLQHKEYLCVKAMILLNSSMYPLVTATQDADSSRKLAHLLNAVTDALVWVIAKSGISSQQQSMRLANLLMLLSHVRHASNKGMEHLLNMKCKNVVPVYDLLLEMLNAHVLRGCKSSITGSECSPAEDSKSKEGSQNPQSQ
Sequence of NAD-dependent protein deacylase sirtuin-5, mitochondrial (Q9NXA8 whole entry): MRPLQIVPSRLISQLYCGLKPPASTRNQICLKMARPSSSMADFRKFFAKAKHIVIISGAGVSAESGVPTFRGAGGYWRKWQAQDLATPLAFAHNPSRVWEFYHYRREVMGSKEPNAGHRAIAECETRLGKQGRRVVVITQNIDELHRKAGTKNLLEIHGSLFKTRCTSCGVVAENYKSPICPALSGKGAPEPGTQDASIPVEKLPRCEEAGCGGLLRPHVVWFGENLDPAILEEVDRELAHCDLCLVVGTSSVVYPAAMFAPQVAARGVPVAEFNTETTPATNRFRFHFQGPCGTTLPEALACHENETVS
T4 sequence (P11940 whole entry): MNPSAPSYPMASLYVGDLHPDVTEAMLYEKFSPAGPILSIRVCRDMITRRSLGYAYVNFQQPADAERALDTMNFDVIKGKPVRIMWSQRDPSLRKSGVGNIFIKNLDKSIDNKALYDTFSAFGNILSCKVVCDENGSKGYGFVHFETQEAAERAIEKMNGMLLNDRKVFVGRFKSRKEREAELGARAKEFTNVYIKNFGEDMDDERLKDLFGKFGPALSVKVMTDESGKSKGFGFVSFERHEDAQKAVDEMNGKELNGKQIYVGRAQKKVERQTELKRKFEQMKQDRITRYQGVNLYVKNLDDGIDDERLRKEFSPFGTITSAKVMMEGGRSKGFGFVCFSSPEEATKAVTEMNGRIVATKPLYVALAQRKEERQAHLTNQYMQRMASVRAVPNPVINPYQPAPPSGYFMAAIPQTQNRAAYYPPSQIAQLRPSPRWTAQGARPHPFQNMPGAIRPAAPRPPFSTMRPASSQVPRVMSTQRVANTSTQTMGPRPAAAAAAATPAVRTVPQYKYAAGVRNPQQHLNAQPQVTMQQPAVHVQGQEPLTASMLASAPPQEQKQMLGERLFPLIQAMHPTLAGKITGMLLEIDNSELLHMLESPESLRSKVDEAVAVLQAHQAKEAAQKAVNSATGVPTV
Sequence of Nonstructural protein 1 (Q194T2 whole entry): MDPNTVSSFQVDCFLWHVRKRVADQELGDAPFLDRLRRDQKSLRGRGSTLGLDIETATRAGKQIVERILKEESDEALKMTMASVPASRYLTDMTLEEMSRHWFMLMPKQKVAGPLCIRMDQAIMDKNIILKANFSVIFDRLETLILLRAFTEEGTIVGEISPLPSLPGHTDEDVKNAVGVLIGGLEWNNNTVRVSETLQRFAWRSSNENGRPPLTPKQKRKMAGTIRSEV

Cc1ccc(N/C=C/C(=O)c2ccccc2)cc1Br
IC50 [1]: > 67.6 µM (inactive) | EC50 [2]: > 67.6 µM (inactive)

CC(C)NC1=NN=C(c2ccc(F)cc2)CS1
EC50 [3]: > 50 µM (active)

Cc1noc(C)c1S(=O)(=O)N(CC(=O)O)c1ccc2c(c1)OCO2
IC50 (Estrogen receptor beta [4]): 9.71 µM (active) | IC50 (Estrogen receptor beta [5]): 0.084 µM (not active)

O=C(Cc1cccs1)Nc1ccc(S(=O)(=O)Nc2ncccn2)cc1
IC50 (Estrogen receptor beta [4]): < 1.56 µM (active) | IC50 (Estrogen receptor beta [5]): 0.0699 µM (not active)

Cc1c(C)n(Cc2ccccc2)c2ccc(C(=O)OCCCN(C)C)cc12
EC50 (cells [6]): 0.153 µM (active) | EC50 [7]: < 0.1 µM (active) | IC50 (Nonstructural protein 1): 43.7 µM (active) | EC50 [8]: > 30 µM (not active)

CCOC(=O)c1c(NC(=O)Cn2cnc([N+](=O)[O-])n2)sc2c1CCCC2
EC50 (cells [6]): 0.121 µM (active) | EC50 [7]: < 0.1 µM (active) | EC50 [8]: > 60 µM (not active)

NC(=O)c1ccc(C(F)(F)F)cn1
AC50 [9]: > 30 µM (inactive)

CC(=O)Nc1ccccc1-c1nc2ccc(C(=O)N3CCN(c4cc(C)ccc4C)CC3)cc2nc1O
EC50 [3]: > 50 µM (active)

CCc1ccc(-c2ccc(C(=O)O)c(C)n2)cc1
IC50 [10]: > 109 µM (inactive) | IC50 [11]: > 83.2 µM (inactive)

CCc1sc(C(=O)N2CCc3ccccc32)cc1C
IC50 [1]: > 67.5 µM (inactive) | EC50 [2]: > 67.5 µM (inactive) | IC50 [12]: 9.39 µM (not active)

Cc1ccc(S(=O)(=O)Nc2ccccc2C(=O)NCc2cccnc2)cc1
AC50 [13]: 25.6 µM (active)

Cc1cc(C)c(NC(=O)CSc2nc3cc(Br)c[nH]c-3n2)c(C)c1
AC50 [9]: > 30 µM (inactive)

Cn1c(CNc2ccc(F)cc2)nc2ccccc21
IC50 [1]: > 67.5 µM (inactive) | EC50 [2]: > 67.5 µM (inactive)

O=C1CCCC(=O)C1CS(=O)(=O)c1ccccc1
IC50 [10]: > 109 µM (inactive) | IC50 [14]: > 66 µM (inactive) | IC50 [11]: > 83.2 µM (inactive) | IC50 [15]: > 66 µM (inactive)

c1ccc(-c2ccc(-c3ccccn3)s2)nc1
IC50 [1]: > 67.6 µM (inactive) | EC50 [2]: > 67.6 µM (inactive) | EC50 (cells [16]): > 67.5 µM (inactive) | EC50 [17]: > 67.5 µM (inactive)

CC(C)CC(c1nnnn1Cc1ccco1)N1CCN(c2cccc(Cl)c2)CC1 (stereo not given)
EC50 [3]: > 50 µM (active)

O=C(/C=C\Nc1cccc(F)c1)c1cccs1
IC50 (Protein skinhead-1): 28.1 µM (active) | EC50 (cells [16]): > 67.5 µM (inactive) | EC50 [17]: > 67.5 µM (inactive)

NC(=O)CC(NC(=O)c1ccccc1)c1ccc(NCC2CC2)c([N+](=O)[O-])c1 (stereo not given)
IC50 [10]: > 109 µM (inactive) | IC50 [11]: > 83.3 µM (inactive)

CCOC(=O)c1c(NS(=O)(=O)c2cccc(OC)c2)sc2c1CCC2
IC50 [10]: > 109 µM (inactive) | IC50 [11]: > 83.3 µM (inactive)

CN(CC(=O)Nc1ccc2c(c1)CCC2)CC(=O)Nc1ccccc1Br
IC50 [10]: > 109 µM (inactive) | IC50 [11]: > 83.3 µM (inactive)

CC1C(=O)N2CCCc3cc(S(=O)(=O)NCCc4ccccc4)cc1c32 (stereo not given)
AC50 [9]: > 30 µM (inactive)

COC(=O)c1ccccc1N(C)S(=O)(=O)c1cc2c(cc1C)OCC(=O)N2
AC50 [13]: 24.1 µM (active)

CCc1ccc(NS(=O)(=O)c2c(C)noc2C)cc1
AC50 [9]: > 30 µM (inactive)

C/C(=N\Nc1ccc(C)c(Cl)c1)c1cccnc1
EC50 [3]: > 50 µM (active)

O=C(N/N=C/c1ccc(-c2ccccc2Cl)o1)c1ccccc1
EC50 (cells [6]): 0.035 µM (active) | EC50 [7]: < 0.1 µM (active) | EC50 [8]: > 60 µM (not active)

CO[C@H]1CN(C)C(=O)c2cc(NC(=O)NC(C)C)ccc2OC[C@H](C)N(Cc2ccc(-c3ccccn3)cc2)C[C@@H]1C
AC50 [13]: 22.6 µM (active)

O=C(N/N=C/c1ccc(N2CCOCC2)cc1)c1ccc(O)cc1
EC50 [3]: > 50 µM (active)

Clc1cccc(-c2nc(-c3ccccn3)no2)c1
AC50 [18]: 5.92 µM (active) | EC50 (cells [16]): > 67.5 µM (inactive) | EC50 [17]: > 67.5 µM (inactive)
